Data from the supplement of paper PMC11451515.

System: NOMO1
Test: cell viability relative to DMSO control; higher = less cytotoxic
Details: 48 h
Outline: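 Viability values are per-plate percentages of DMSO wells, with background from cell-free wells. Library compounds in DMSO were pin-dosed, in an 11-point threefold series from 47 μM to 0.79 nM, onto NOMO1 or SEM (500 cells/well) or P12-Ichikawa (1000 cells/well) leukemia cells in 1536-well plates (5 μl). Those cells had been adapted for at least four passages in each medium, and CellTiter-Glo One luminescence was read after 48 h at 37°C.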

[1] = HPLM + 10% dialyzed FBS, 0.000781 µM
[2] = HPLM + 10% dialyzed FBS, 0.00234 µM
[3] = HPLM + 10% dialyzed FBS, 0.00702 µM
[4] = HPLM + 10% dialyzed FBS, 0.0211 µM
[5] = HPLM + 10% dialyzed FBS, 0.0632 µM
[6] = HPLM + 10% dialyzed FBS, 0.19 µM
[7] = HPLM + 10% dialyzed FBS, 0.569 µM
[8] = HPLM + 10% dialyzed FBS, 1.71 µM
[9] = HPLM + 10% dialyzed FBS, 5.12 µM
[10] = HPLM + 10% dialyzed FBS, 15.4 µM
[11] = HPLM + 10% dialyzed FBS, 46.1 µM
[12] = RPMI 5 mM glucose + 10% FBS, 0.000781 µM
[13] = RPMI 5 mM glucose + 10% FBS, 0.00234 µM
[14] = RPMI 5 mM glucose + 10% FBS, 0.00702 µM
[15] = RPMI 5 mM glucose + 10% FBS, 0.0211 µM
[16] = RPMI 5 mM glucose + 10% FBS, 0.0632 µM
[17] = RPMI 5 mM glucose + 10% FBS, 0.19 µM
[18] = RPMI 5 mM glucose + 10% FBS, 0.569 µM
[19] = RPMI 5 mM glucose + 10% FBS, 1.71 µM
[20] = RPMI 5 mM glucose + 10% FBS, 5.12 µM
[21] = RPMI 5 mM glucose + 10% FBS, 15.4 µM
[22] = RPMI 5 mM glucose + 10% FBS, 46.1 µM
[23] = RPMI 5 mM glucose + 10% dialyzed FBS, 0.000781 µM
[24] = RPMI 5 mM glucose + 10% dialyzed FBS, 0.00234 µM
[25] = RPMI 5 mM glucose + 10% dialyzed FBS, 0.00702 µM
[26] = RPMI 5 mM glucose + 10% dialyzed FBS, 0.0211 µM
[27] = RPMI 5 mM glucose + 10% dialyzed FBS, 0.0632 µM
[28] = RPMI 5 mM glucose + 10% dialyzed FBS, 0.19 µM
[29] = RPMI 5 mM glucose + 10% dialyzed FBS, 0.569 µM
[30] = RPMI 5 mM glucose + 10% dialyzed FBS, 1.71 µM
[31] = RPMI 5 mM glucose + 10% dialyzed FBS, 5.12 µM
[32] = RPMI 5 mM glucose + 10% dialyzed FBS, 15.4 µM
[33] = RPMI 5 mM glucose + 10% dialyzed FBS, 46.1 µM

SMILES	cell viability [1]	cell viability [2]	cell viability [3]	cell viability [4]	cell viability [5]	cell viability [6]	cell viability [7]	cell viability [8]	cell viability [9]	cell viability [10]	cell viability [11]	cell viability [12]	cell viability [13]	cell viability [14]	cell viability [15]	cell viability [16]	cell viability [17]	cell viability [18]	cell viability [19]	cell viability [20]	cell viability [21]	cell viability [22]	cell viability [23]	cell viability [24]	cell viability [25]	cell viability [26]	cell viability [27]	cell viability [28]	cell viability [29]	cell viability [30]	cell viability [31]	cell viability [32]	cell viability [33]
CCc1cc(Nc2nccc(-c3c(-c4ccc(OC)c(C(=O)Nc5c(F)cccc5F)c4)nc4ccccn34)n2)c(OC)cc1N1CCC(N2CCN([S+](C)(=O)[O-])CC2)CC1	101%	95.2%	103%	104%	105%	96.7%	114%	120%	103%	96%	43.2%	101%	91.5%	92.7%	95.3%	94.6%	102%	114%	106%	101%	111%	44.6%	84.8%	90.1%	94.8%	101%	104%	86%	102%	107%	109%	98.3%	65.5%
CNC(=O)c1ccc(-c2cnc3ncc(Cc4ccc5ncccc5c4)n3n2)cc1F	113%	127%	120%	103%	132%	116%	131%	133%	125%	117%	135%												116%	124%	138%	131%	126%	136%	129%	136%	130%	137%	145%
OC1=C(O)C2=C(\C=C/C(=O)O2)C=C1	102%	111%	109%	116%	113%	108%	103%	109%	111%	115%	128%	99.7%	105%	105%	116%	106%	96.5%	97.3%	110%	97.1%	107%	99.4%	105%	102%	108%	107%	99.8%	127%	111%	101%	107%	110%	112%
Cc1cc(OCCCc2c(C(=O)O)n(Cc3cccnc3)c3c(-c4c(COc5ccc(N6CCN([S+](C)(=O)[O-])CC6)cc5)nn(C)c4C)cccc23)cc(C)c1Cl	92.9%	112%	98.3%	107%	100%	104%	100%	92.7%	92.1%	87%	71.8%	86%	87.7%	94.8%	89.8%	95.6%	90.8%	87.7%	91.5%	82.4%	78.5%	74.9%	92.4%	90.5%	98.1%	98.4%	95.8%	86.1%	87.7%	98.2%	96.7%	91.2%	78.6%
O=C(OC)[C@]12CC[C@@]3(C)[C@]4(C)CC[C@H]5[C@@](C)(C)C(=O)C(=C[C@]5(C)C4=CC(=O)[C@@H]3[C@@H]2C[C@](C)(C)CC1)C#N	95%	100%	90.6%	112%	110%	94.1%	113%	96.1%	110%	2.47%	2.86%	93.9%	99.8%	89.5%	82.1%	99.2%	94.2%	88.9%	84.7%	88.6%	2.76%	2.71%	87.2%	92%	96.5%	96.6%	102%	112%	85%	84.6%	85.7%	2.44%	2.7%
CC(C)C(C)/C=C/C(C)C1CCC2C3=CC=C4CC(O)CCC4(C)C3CCC21C (stereo not drawn)	104%	101%	115%	111%	104%	99.8%	112%	106%	111%	110%	94.8%	86.5%	97.2%	90.6%	88.4%	96.7%	88.6%	89.9%	92%	85.1%	83%	82.7%	99.1%	88.7%	92.4%	89.8%	99.7%	104%	94.6%	97.7%	86.4%	81.6%	90.4%
CC1=C(/C=C/C(C)=C/C=C/C(C)=C/C=C/C=C(C)/C=C/C=C(C)/C=C/C2=C(C)CCCC2(C)C)C(C)(C)CCC1	115%	110%	108%	104%	104%	107%	100%	98.2%	118%	92.9%	98.2%	119%	112%	110%	111%	108%	108%	99.3%	101%	113%	102%	95.5%	101%	113%	129%	108%	112%	111%	107%	117%	114%	95.1%	90.3%
COC(=O)Nc1nc2cc(C(=O)c3cccs3)ccc2[nH]1	106%	88.5%	113%	81.8%	43.6%	34.2%	32.3%	44%	57.7%	57.3%	53.1%												98.2%	113%	129%	101%	53.6%	28.1%	33.7%	36.1%	36.2%	40.5%	42.2%
NC[C@H]1CC[C@H](C(=O)O)CC1												112%	133%	105%	109%	119%	128%	110%	110%	116%	121%	120%											
ClC1=C(N\C2=N\CCN2)C3=NSN=C3C=C1												108%	119%	120%	123%	112%	118%	119%	135%	117%	125%	144%	107%	127%	114%	132%	133%	128%	140%	143%	161%	153%	140%
C=C(C)[C@@H]1CC[C@]2(C(=O)O)CC[C@]3(C)[C@H](CC[C@@H]4[C@@]5(C)CC[C@H](O)C(C)(C)[C@@H]5CC[C@]43C)[C@@H]12	115%	124%	107%	123%	119%	110%	118%	105%	102%	94.6%	95.7%	116%	118%	121%	111%	115%	111%	119%	113%	111%	114%	97.1%											
Cl.Cl.Cl.O[C@@H](COc1cccc2ncccc12)CN1CCN([C@@H]2c3ccccc3[C@@H]3[C@H](c4ccccc42)C3(F)F)CC1	79.7%	84.8%	75.8%	89.4%	94.7%	102%	93.8%	76.5%	94.6%	70.8%	68.6%	79.7%	78.4%	75.8%	91.7%	97%	84.5%	89.8%	87.9%	81%	76.2%	74.2%	98.6%	83.8%	87.2%	79.5%	81%	92.4%	73.5%	84.2%	86.2%	78.2%	87%
CCC(C)SSc1ncc[nH]1 (stereo not drawn)	88%	85.5%	94.8%	103%	102%	105%	90.3%	87.4%	104%	53.6%	12.6%	86%	93.9%	97.7%	98.2%	92.5%	93.1%	96.5%	104%	104%	67.5%	13.6%	89%	97.6%	89.2%	101%	94.5%	94.5%	94.8%	105%	101%	81.8%	9.7%
CC(C)NCC(O)COc1ccc(COCCOC(C)C)cc1 (stereo not drawn)	114%	110%	121%	113%	122%	99.8%	118%	109%	109%	95.4%	73.1%	108%	116%	108%	107%	114%	116%	107%	110%	97.3%	103%	91.4%	111%	111%	119%	105%	129%	111%	111%	99.7%	111%	116%	88.7%
NC(=O)c1cnc(N[C@@H]2CCCC[C@@H]2N)nc1Nc1cccc(-n2nccn2)c1	118%	120%	123%	153%	140%	141%	154%	116%	138%	110%	75%																						
Cc1nc(NC(=O)N2CCC[C@H]2C(N)=O)sc1-c1ccnc(C(C)(C)C(F)(F)F)c1	99.5%	96.2%	105%	81.2%	85.9%	81.5%	75.9%	70.1%	46.2%	44.4%	71.7%	86.8%	84.8%	88%	82.7%	87.5%	80.2%	79.4%	77.8%	56.3%	55.3%	82.5%	79.6%	84.8%	82.2%	76.8%	82.2%	75.6%	67.8%	69.2%	48.3%	48.2%	87.7%
CC1CCC(C(=O)N(c2cc(C#CC(C)(C)C)sc2C(=O)O)C2CCC(O)CC2)CC1 (stereo not drawn)	108%	98.7%	111%	113%	96%	92.9%	98.7%	85%	78.9%	50.1%	53.5%	87.2%	98.8%	91.5%	90.9%	85%	87.9%	88.6%	87.7%	78.1%	75.1%	59.8%	97.5%	97.1%	89.7%	98.3%	96.5%	86.3%	93.2%	81.7%	79.9%	65.2%	46.1%
